Test results from paper PMC9124820, “In vitro evaluation of fenfluramine and norfenfluramine as victims of drug interactions” (Pharmacology Research & Perspectives, 2022).

Key:
[1] = Substrate loss and nFFA formation over time in human liver microsomes; format: in vitro ADME
From the text: Microsomes from a mixed‐gender pool of 200 non‐transplantable human livers (Sekisui XenoTech, LLC, Kansas City, KS) were characterized as described.[20], [21] Human recombinant CYP450s (rCYP450s) and control membranes from Escherichia coli transfected with empty expression plasmid or plasmid expressing nicotinamide adenine dinucleotide phosphate (hydrogen) (NADPH)‐CYP450 oxidoreductase without CYP450 enzymes were obtained from Cypex, Ltd. Metabolite identification and stability studies used human liver S9 fractions (containing both microsomal and cytosolic fractions of the cell) from pooled human liver (n = 50) and intestine (n = 10), pooled canine liver (n = 8) and intestine (n = 7), and pooled rat liver (n = 454) and intestine (n = 199). All rCYP450 enzymes except rCYP1A2 and rCYP2D6 were expressed with cytochrome b5.
For FFA and nFFA reaction phenotyping experiments, LC‐MS/MS experiments were performed using an API 4000 QTRAP or QTRAP 5500 mass spectrometer (SCIEX) with positive electrospray ionization. Chromatography was performed using an Atlantis dC18 analytical column (100 × 2.1 mm, 5 µm; Waters Corporation). Mobile phases were 0.2% v/v formic acid in water and 0.2% v/v formic acid in methanol. FFA and nFFA were eluted at a flow rate of 0.5 mL/min with a linear gradient of 40%−95% methanol from 0.20−2.1 min. The mass transitions monitored were 232.0>109.0 for FFA, 204.0>159.0 for nFFA, 348.0>330.0 for 1’‐hydroxymidazolam‐d4 internal standard (FFA reaction phenotyping), and 262.0>244.0 for hydroxybupropion‐d6 internal standard (nFFA reaction phenotyping). Analyst Instrument Control and Data Processing software (v. 1.6.1) was used for collecting and integrating data (SCIEX). Calibration curves ranging from 1.25 µM−0.01 µM were used to quantify nFFA. Relative quantitation was used to approximate the amount of FFA test material used.
The line of best‐fit for calibration standards was calculated by weighted (1/x) linear regression based on peak‐area ratios of analyte to the internal standard using Analyst Instrument Control and Data Processing software (version 1.6.1; SCIEX). Mean analyte peak‐area ratio at each time point was normalized to controls at t = 0 min (100%).

OAT1 = molecular target: T1, OAT1 (Homo sapiens, UniProt Q4U2R8); test: Transporter substrate determination, uptake in HEK293-OAT1 cells; format: in vitro ADME; conditions: for Maximum Ratio (uptake in transporter‐expressing cells to empty‐vector control cells): HEK293‐OAT1, 0.1, 1, 10 µM, threshold ≥2‐fold; for substrate of the transporter: OAT1
T1 construct: host or cells: HEK293
T1 sequence (Q4U2R8 1-563): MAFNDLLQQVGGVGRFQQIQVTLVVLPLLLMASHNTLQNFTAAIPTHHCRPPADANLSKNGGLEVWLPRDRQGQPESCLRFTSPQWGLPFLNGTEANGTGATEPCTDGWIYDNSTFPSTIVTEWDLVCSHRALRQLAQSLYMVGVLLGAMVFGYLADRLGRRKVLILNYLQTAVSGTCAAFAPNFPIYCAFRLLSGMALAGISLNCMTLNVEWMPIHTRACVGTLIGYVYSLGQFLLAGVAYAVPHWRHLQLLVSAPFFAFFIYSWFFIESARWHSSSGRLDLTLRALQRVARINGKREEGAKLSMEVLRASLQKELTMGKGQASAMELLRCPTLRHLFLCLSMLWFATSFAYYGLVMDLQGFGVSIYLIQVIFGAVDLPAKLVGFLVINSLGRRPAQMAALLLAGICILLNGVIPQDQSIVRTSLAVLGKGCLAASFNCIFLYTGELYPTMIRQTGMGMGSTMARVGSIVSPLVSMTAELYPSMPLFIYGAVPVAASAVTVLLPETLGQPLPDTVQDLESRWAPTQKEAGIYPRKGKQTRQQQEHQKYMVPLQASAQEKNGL
Protocol: LC‐MS/MS analyses to assess metabolic stability and identify the transporter substrate were performed using an API 4000 QTRAP mass spectrometer (SCIEX, Framingham, MA) with electrospray ionization in positive mode. Chromatography was performed using an Atlantis dC18 analytical column (100 × 2.1 mm, 5 µm; Waters Corporation, Milford, MA). Mobile phases were 0.2% v/v formic acid in water and 0.2% v/v formic acid in acetonitrile. For metabolic stability experiments, FFA and metabolites were eluted at a flow rate of 0.6 mL/min, with a linear gradient of 20%−80% acetonitrile from 0.30−2.0 min. For transporter substrate experiments, the gradient was slightly modified to achieve suitable chromatography. The mass transitions monitored were 232.0 > 159.0 for FFA and 348.0 > 330.0 for 1ʹ‐OH‐midazolam‐d4 internal standard.
FFA and nFFA were evaluated as substrates of the transporters breast cancer resistance protein (BCRP), organic anion transporter (OAT)1, OAT3, organic cation transporter (OCT)2, MATE1, MATE2‐K, and P‐glycoprotein multidrug transporter (P‐gp; also known as MDR1 and ABCB1), according to published methods.[25], [26], [27], [28], [29] Madin‐Darby canine kidney (MDCKII)‐BCRP cells (Netherlands Cancer Institute, Amsterdam, Netherlands) or human embryonic kidney (HEK)293 cells transfected with other transporters (Sekisui Medical Co., Ltd., Tokyo, Japan) were used. Transporter‐transfected and control cells were incubated with FFA or nFFA (0.1, 1, or 10 μM), and the amount of FFA and nFFA accumulated in the cells was measured by LC‐MS/MS as described above. The accumulation of positive control substrates in the presence and absence of an inhibitor served as a positive control for transporter function. […] BCRP substrate determination was made by bi‐directional permeability across MDCKII‐BCRP and control cells cultured on 24‐well transwell plates. Incubation medium containing probe substrate was added. Ten minutes later, transepithelial electrical resistance (TEER) was recorded and cells were preincubated at 37 ± 2°C for 30−60 min before FFA or nFFA or positive control substrate with the solvent control or positive control inhibitor was added to the donor (apical) chamber. […] Samples containing FFA, nFFA, or probe substrate were mixed with internal standard and analyzed by LC‐MS/MS. […] An aliquot was added to 96‐well plate containing scintillation fluid that was analyzed by a MicroBeta^2 scintillation counter (Perkin Elmer, Waltham, MA). Protein concentration was determined by a bicinchoninic acid (BCA) protein assay according to the manufacturer’s protocol (Thermo Fisher Scientific, Waltham, MA). Non‐radiolabeled compounds were resuspended in a 50:50 v/v methanol:water solution containing internal standard and were analyzed by LC‐MS/MS. […]

Row | Compound | nFFA substrate loss in the absence of microsomal protein ([1]; control without microsomal protein) | nFFA substrate loss in the absence of the NADPH‐generating system ([1]; human liver microsomes, no NADPH-generating system) | Maximum Ratio (uptake in transporter‐expressing cells to empty‐vector control cells) (OAT1) | substrate of the transporter (OAT1) | FFA substrate loss ([1]; human liver microsomes 1 mg protein/mL, 1−100 µM FFA, all concentrations and times tested) | substrate remaining in the absence of NADPH ([1]; human liver microsomes, FFA, absence of NADPH)
1 | CC(N)Cc1cccc(C(F)(F)F)c1.Cl (centres unmarked) [nFFA, 1‐(3‐(trifluoromethyl)phenyl)propan‐2‐amine hydrochloride] | no substrate loss detected | 1.2% | 1.13 | not substrates |  | 
2 | CCNC(C)Cc1cccc(C(F)(F)F)c1 (racemic) [FFA, (RS)‐ethyl (α‐methyl‐3‐trifluoromethylphenethyl)amine] |  |  | 1.22 | not substrates | ≤ 7.7% | ~ 100%
